Test results: patent US10513529B2, “1,2,4-triazolo-[3,4-b]-1,3,4-thiadiazole derivatives” (GALENICA S.A., priority 2016, dated 2019)

Tests used:
C57BI/6 mice = experiment: in vivo; conditions: i.p., acute toxicity
Experimental: (§1) The acute toxicity of the compounds was assessed from lethality by testing different concentrations, starting at 100mg/kg. […] For intraperitoneal (i.p.) treatment, stock solutions of the tested compounds were prepared immediately before use. They were suspended in corn oil in the desired concentration following initial dissolution in 10% dimethylsulfoxide (DMSO). C57BI/6 male and female were used for toxicity studies. Mice were kept under conditions of constant temperature and humidity in sterile cages with water and food.

in vivo = conditions: both sexes, mouse, in vivo, ip; C57BI/6 mice, acute toxicity
Experimental: as §1

[1] = tested on: MOLT-4 human acute T-leukemia cell line; experiment: MTT cytostatic-cytotoxic activity, MOLT-4; assay type: cell-based; conditions: MOLT-4, 48 h treatment; for GI50 / IC50: Homo sapiens; for IC50: kills 50% of the cells
[2] = tested on: all 9 human cancer cell lines; experiment: MTT cytostatic-cytotoxic activity, all 9 human cancer cell lines; assay type: cell-based

Structure (SMILES)	LD10 (C57BI/6 mice) [mg/kg]	LD50 (in vivo) [mg/kg]	GI50 [1] [µM]	IC50 [1] [µM]	TGI [1] [µM]	LD50 (C57BI/6 mice) [mg/kg]	IC50 ([2]; Homo sapiens, read-out: (cytotoxic)) [µM]	GI50 ([2]; in all 9 human cancer cell lines, read-out: IG50 (cytostatic)) [µM]
COc1cc(Cc2nnc3sc(/C=C/c4ccc(F)cc4)nn23)c(S(=O)(=O)N(C)C)cc1OC [TS25, 3-[2-(N,N-dimethylsulfamoyl)-4,5-dimethoxybenzyl]-6-(E)-4-fluorostyryl-1,2,4-triazolo[3,4-b]-1,3,4-thiazole]	>500	345	16	78	29	–	–	–
COc1cc(Cc2nnc3sc(/C=C/c4ccc(Cl)cc4)nn23)c(S(=O)(=O)N(C)C)cc1OC [TS26, 3-[2-(N,N-dimethylsulfamoyl)-4,5-dimethoxybenzyl]-6-(E)-4-chlorostyryl-1,2,4-triazolo[3,4-b]-1,3,4-thiazole]	>500	365	32	> 100	81	–	–	–
COc1ccc(Cc2nn3c(Cc4cc(OC)c(OC)cc4S(=O)(=O)N(C)C)nnc3s2)cc1 [TS50, 3-[2-(N,N-dimethylsulfamoyl)-4,5-dimethoxybenzyl]-6-(4-methoxybenzyl)-1,2,4-triazolo[3,4-b]-1,3,4-thiazole]	>500	> 500	10	> 100	>100	>500	–	–
COc1cc(Cc2nnc3sc(-c4ccccc4N)nn23)c(S(=O)(=O)N(C)C)cc1OC [TS57, 3-[2-(N,N-dimethylosulfamoyl)-4,5-dimethoxybenzyl]-6-(2-aminophenyl)-1,2,4-triazolo[3,4-b]-1,3,4-thiazole]	>500	> 500	94	> 100	>100	>500	–	–
COc1cc(Cc2nnc3sc(Cc4ccccc4)nn23)c(S(=O)(=O)N(C)C)cc1OC [TS62, 3-[2-(N,N-dimethylsulfamoyl)-4,5-dimethoxybenzyl]-6-benzyl-1,2,4-triazolo[3,4-b]-1,3,4-thiazole]	>500	480	7	> 100	55	–	–	–
COc1cc(Cc2nnc3sc(-c4ccc(Cl)cc4)nn23)c(S(=O)(=O)N(C)C)cc1OC [TS63, 3-[2-(N,N-dimethylsulfamoyl)-4,5-dimethoxybenzyl]-6-(4-chlorophenyl)-1,2,4-triazolo[3,4-b]-1,3,4-thiazole]	>500	430	6	78	45	–	–	–
COc1cc(Cc2nnc3sc(-c4ccc(N)cc4)nn23)c(S(=O)(=O)N(C)C)cc1OC [TS71, 3-[2-(N,N-dimethylsulfamoyl)-4,5-dimethoxybenzyl]-6-(4-aminophenyl)-1,2,4-triazolo[3,4-b]-1,3,4-thiazole]	>500	> 500	55	> 100	>100	>500	–	–
COc1cc(Cc2nnc3sc(-c4ccccc4)nn23)c(S(=O)(=O)N(C)C)cc1OC [TS167, 3-[2-(N,N-dimethylsulfamoyI)-4,5-dimethoxy-benzyl]-6-phenyl-1,2,4-triazolo[3,4-b]-1,3,4-thiazole]	>500	> 500	42	> 100	>100	>500	> 100	< 100
